Laboratory results taken from patent US20110009447A1, “Substituted Benzoic Acid Amides and Use thereof for the Inhibition of Angiogenesis” (priority 2001, published 2011).
Read-outs that look alike come from different tables or passages of the source.

What was measured:
VEGFR II (KDR) = VEGFR II (KDR) (Homo sapiens, UniProt P35968); assay: Inhibition of KDR kinase activity (33P-ATP, poly-(Glu4Tyr) phosphocellulose filter assay); type: biochemical; conditions: poly-(Glu4Tyr) substrate, 10 minutes at room temperature
Sequence of VEGFR II (KDR) (P35968 20-1356, species assumed): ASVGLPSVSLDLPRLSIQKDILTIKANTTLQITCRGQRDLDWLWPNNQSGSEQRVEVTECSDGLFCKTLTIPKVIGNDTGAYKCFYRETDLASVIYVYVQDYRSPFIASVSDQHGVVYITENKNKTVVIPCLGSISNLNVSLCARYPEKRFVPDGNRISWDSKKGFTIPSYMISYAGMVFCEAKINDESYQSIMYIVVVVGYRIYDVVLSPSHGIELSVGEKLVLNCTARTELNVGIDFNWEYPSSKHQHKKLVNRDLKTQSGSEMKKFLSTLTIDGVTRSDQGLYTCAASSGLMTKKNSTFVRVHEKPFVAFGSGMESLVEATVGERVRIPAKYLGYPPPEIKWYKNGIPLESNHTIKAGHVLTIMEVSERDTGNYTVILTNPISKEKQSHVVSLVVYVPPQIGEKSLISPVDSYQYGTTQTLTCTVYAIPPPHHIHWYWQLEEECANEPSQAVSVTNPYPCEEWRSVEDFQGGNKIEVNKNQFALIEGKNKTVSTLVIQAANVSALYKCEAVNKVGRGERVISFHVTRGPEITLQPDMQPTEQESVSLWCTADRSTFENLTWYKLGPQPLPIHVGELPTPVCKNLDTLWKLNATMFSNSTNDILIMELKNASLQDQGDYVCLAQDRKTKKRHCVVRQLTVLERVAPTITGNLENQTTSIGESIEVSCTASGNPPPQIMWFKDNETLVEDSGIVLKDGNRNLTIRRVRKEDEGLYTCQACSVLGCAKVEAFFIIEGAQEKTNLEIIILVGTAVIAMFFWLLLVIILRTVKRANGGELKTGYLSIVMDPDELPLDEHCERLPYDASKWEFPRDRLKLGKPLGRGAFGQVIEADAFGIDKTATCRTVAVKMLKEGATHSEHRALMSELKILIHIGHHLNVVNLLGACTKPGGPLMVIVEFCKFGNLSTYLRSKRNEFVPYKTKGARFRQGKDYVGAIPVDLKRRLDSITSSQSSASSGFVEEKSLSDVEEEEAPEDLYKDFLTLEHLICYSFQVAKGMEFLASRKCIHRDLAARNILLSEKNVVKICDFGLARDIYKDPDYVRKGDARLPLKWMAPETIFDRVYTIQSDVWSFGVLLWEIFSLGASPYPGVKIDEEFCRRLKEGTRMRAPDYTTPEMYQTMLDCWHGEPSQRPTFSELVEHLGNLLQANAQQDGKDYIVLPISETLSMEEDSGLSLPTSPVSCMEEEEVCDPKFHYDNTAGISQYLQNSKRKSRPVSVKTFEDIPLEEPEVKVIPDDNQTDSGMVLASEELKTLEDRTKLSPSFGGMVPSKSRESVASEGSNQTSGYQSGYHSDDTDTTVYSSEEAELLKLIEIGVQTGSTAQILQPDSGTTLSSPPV
Description: (§1) • Stock solutions • Stock solution A: 3 mmol of ATP in water, pH 7.0 (−70° C.) • Stock solution B: g-33P-ATP 1 mCi/100 μl • Stock solution C: poly-(Glu4Tyr) 10 mg/ml in water Solution for dilutions • Substrate solvent: 10 mmol of DTT, 10 mmol of manganese chloride, 100 mmol of magnesium chloride • Enzyme solution: 120 mmol of tris/HCl, pH 7.5, 10 μM of sodium vanadium oxide
In a microtiter plate (without protein binding) that tapers to a point, 10 μl of substrate mix (10 μl of volume of ATP stock solution A+25 μCi of g-33P-ATP (about 2.5 μl of stock solution B)+30 μl of poly-(Glu4Tyr) stock solution C+1.21 ml of substrate solvent), 10 μl of inhibitor solution (substances corresponding to the dilutions, 3% DMSO in substrate solvent as a control) and 10 μl of enzyme solution (11.25 μg of enzyme stock solution (KDR or FLT-1 kinase) are added at 4° C. in 1.25 ml of enzyme solution (dilute). It is thoroughly mixed and incubated for 10 minutes at room temperature. Then, 10 μl of stop solution (250 mmol of EDTA, pH 7.0) is added, mixed, and 10 μl of the solution is transferred to a P 81 phosphocellulose filter. Then, it is washed several times in 0.1 M phosphoric acid. The filter paper is dried, coated with Meltilex and measured in a microbeta counter.
The IC50 values are determined from the inhibitor concentration, which is necessary to inhibit the phosphate incorporation to 50% of the uninhibited incorporation after removal of the blank reading (EDTA-stopped reaction).

VEGFR I (FLT) = VEGFR I (FLT) (Homo sapiens, UniProt P17948); assay: Inhibition of FLT-1 kinase activity (33P-ATP, poly-(Glu4Tyr) phosphocellulose filter assay); type: biochemical
Sequence of VEGFR I (FLT) (P17948 27-1338, species assumed): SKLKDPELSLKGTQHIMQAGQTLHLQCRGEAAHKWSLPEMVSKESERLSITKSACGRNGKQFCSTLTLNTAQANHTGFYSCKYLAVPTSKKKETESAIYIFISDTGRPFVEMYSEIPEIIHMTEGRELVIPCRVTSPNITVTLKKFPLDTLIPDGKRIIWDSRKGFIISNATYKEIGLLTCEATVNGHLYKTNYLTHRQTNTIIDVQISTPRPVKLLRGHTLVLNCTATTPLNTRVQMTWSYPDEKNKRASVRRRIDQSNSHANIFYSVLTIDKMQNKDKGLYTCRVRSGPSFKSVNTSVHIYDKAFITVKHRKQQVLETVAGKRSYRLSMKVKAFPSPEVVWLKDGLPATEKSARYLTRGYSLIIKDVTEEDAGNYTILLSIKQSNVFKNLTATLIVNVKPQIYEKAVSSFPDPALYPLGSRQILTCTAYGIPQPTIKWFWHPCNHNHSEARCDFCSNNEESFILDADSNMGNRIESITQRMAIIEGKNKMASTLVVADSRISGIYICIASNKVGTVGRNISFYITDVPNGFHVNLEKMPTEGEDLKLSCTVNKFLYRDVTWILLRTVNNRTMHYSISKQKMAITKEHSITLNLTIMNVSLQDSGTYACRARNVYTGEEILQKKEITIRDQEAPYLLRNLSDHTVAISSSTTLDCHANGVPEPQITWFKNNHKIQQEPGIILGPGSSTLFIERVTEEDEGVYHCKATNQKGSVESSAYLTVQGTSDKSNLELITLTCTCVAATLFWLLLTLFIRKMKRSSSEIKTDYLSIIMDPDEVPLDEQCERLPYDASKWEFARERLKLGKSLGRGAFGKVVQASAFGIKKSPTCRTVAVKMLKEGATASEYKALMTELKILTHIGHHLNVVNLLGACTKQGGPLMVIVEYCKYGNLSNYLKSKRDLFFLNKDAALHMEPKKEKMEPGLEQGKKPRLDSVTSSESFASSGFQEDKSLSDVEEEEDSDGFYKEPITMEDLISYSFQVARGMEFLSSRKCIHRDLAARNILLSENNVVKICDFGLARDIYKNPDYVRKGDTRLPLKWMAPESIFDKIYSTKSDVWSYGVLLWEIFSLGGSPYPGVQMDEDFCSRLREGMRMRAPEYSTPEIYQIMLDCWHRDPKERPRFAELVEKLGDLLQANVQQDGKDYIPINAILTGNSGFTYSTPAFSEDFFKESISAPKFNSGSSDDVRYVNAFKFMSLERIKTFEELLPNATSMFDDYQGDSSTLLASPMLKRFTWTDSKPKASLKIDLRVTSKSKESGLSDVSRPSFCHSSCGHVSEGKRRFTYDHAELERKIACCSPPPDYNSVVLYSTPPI
Description: as §1
Then, it is washed several times in 0.1 M phosphoric acid. The filter paper is dried, coated with Meltilex and measured in a microbeta counter.

[1] = FLT-1 kinase, poly-(Glu4Tyr) substrate, 10 minutes at room temperature, read-out: kinase inhibition IC50 VEGFR I (FLT)

| SMILES | IC50 (VEGFR II (KDR)) [nM] | IC50 (VEGFR I (FLT); [1]) [nM] | IC50 (VEGFR I (FLT)) [nM] | melting point [°C] |
| --- | --- | --- | --- | --- |
| COc1ccc(CCc2ccccc2C(=O)Nc2cnc3ccccc3c2)cc1 [Example 1.89] | 300 | 2000 |  |  |
| CCCc1ccc(NC(=O)c2ccccc2CCc2ccncc2)cc1 [Example 1.1] | 200 |  | 200 |  |
| COc1ccc(/C=C\c2ccccc2C(=O)Nc2cnc3ccccc3c2)cc1 [Example 1.60] | 500 | 2000 |  |  |
| O=C(NCC1CCCCC1)c1ccccc1CCc1ccncc1 [Example 1.31] | 400 | 200 |  | 105 to 107 |
| O=C(Nc1ccc(Cl)cc1)c1cccc(C#Cc2cccnc2)c1 [Example 1.54] | 500 | 50 |  | 179 |
| COc1ccc(/C=C\c2ccccc2C(=O)Nc2ccc(Cl)cc2)cc1 [Example 1.57] | 200 | 200 |  | 137.9 |
| CCCCCCCNC(=O)c1ccccc1/C=C\c1ccc(OC)cc1 [Example 1.64] | 300 | 200 |  |  |
| CCCc1ccc(NC(=O)c2ccccc2CCc2ccc(OC)cc2)cc1 [Example 1.67] | 5000 |  |  | 113.7 |
